The record followed here is patent US11992494B2, “Cyclopentathiophene carboxamide derivatives as platelet activating factor receptor antagonists” (Boehringer Ingelheim International GmbH, priority 2021, dated 2024).

The term IC50 denotes the midpoint of a concentration-inhibition curve. The low end stands for greater potency in that assay, the high end for weaker potency in that assay.

Chain of PAFR (P25105 whole entry): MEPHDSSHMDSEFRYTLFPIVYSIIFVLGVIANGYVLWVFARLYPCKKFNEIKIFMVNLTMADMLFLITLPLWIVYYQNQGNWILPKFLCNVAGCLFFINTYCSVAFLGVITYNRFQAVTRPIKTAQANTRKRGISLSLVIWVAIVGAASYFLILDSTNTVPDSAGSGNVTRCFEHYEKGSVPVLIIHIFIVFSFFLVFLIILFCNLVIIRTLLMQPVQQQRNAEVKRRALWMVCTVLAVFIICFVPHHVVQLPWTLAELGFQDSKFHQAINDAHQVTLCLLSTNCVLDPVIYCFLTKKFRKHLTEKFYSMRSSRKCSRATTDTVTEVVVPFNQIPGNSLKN

The first experiment addresses PAFR (Homo sapiens, UniProt P25105). Description: cellular HTRF IP1 assay: inhibition of PAFR activation by PAF C-16 ligand (endpoint assay). It is filed as cell-based. Also noted: expressed in transfected cells; host or cells: HEK293. Conditions: HEK293 cells overexpressing human PAFR; PAF ligand 11 nM; Table 2. The method, then: The ability of compounds of formula (I) to inhibit the activation of the PAF receptor (PAFR) by the PAF C-16 ligand (PAF) is determined using the following cellular HTRF IP1 assay (IP1 Gq assay kit from Cisbio, Cat. no.: 62IP1APEJ) in assay buffer (1×HBSS, 20 mM Hepes, pH 7.4, 50 mM LiCl and containing 0.1% (w/v) BSA):
Evaluation of the Inhibition of PAFR Activation Using an Endpoint Assay
HEK293 cells overexpressing human PAFR (produced in-house) are seeded into a Poly-D-Lysine coated 384 well white cell culture microtiter assay plate with lid (15.000 cells per well). Subsequently, the plates are incubated over night at 37° C./5% CO2. On the next day, cells are being washed and subsequently, various concentrations of the test compounds (compounds in 100% DMSO; final concentration of DMSO in wells is 1%) are added to the assay plate via Echo 555 acoustic liquid handler. Plates are then incubated with lid for 90 minutes at 37° C./5% CO2. Thereafter, PAF ligand (Cayman Chemical Company, Item no.: 60900) is added at a final concentration of 11 nM. Plates are then incubated with lid for 60 minutes at 37° C./5% CO2. Then, 5 μl per well of Anti-IP1-Antibody-Cryptate solution and 5 μl per well of IP1-d2 solution are added to all wells of the plate and the plate is incubated for another 60 minutes light protected at room temperature. The emissions at 620 nm and 665 nm (Excitation wavelength: 320 nm) are measured using an Envision Reader (PerkinElmer).
A general note: TR-FRET usually uses a lanthanide donor and a delayed reading to cut background.
In turn, `CCc1nnc2n1-c1sc3c(c1C(c1ccccc1Cl)=NC21CC1)C[C@H](C(=O)N1CCOCC1)C3` [Example 119, (13′S)-9′-(2-chlorophenyl)-3′-ethyl-13′-(morpholine-4-carbonyl)-16′-thia-2′,4′,5′,8′-tetraazaspiro[cyclopropane-1,7′-tetracyclo[8.6.0.0^2,6.0^11,15]hexadecane]-1′(10′),3′,5′,8′,11′(15′)-pentaene] gave a half-maximal inhibitory concentration (IC50) of 15 nM.

`Cc1noc(C)c1NC(=O)[C@@H]1Cc2sc3c(c2C1)C(c1ccccc1Cl)=NC1(CC1)c1nnc(C)n1-3` [Example 128]: the midpoint of inhibition, the IC50, lay at 5.7 nM. This IC50 lies about 2.6-fold lower than the previous one.

Regarding `CCOC(=O)N1CCC(N(C)C(=O)[C@@H]2Cc3sc4c(c3C2)C(c2ccccc2Cl)=NC2(CC2)c2nnc(C)n2-4)CC1` [Example 72], the half-maximal inhibitory concentration (IC50) stood at 4.9 nM.

The compound `Cc1nnc2n1-c1sc3c(c1C(c1ccccc1Cl)=NC21CC1)C[C@H](C(=O)N[C@H]1CCc2ccccc21)C3` [Example 82] came in with an IC50 of 1.5 nM. This IC50 is about 3.3-fold lower than that of the compound before.

As to `Cc1nnc2n1-c1sc3c(c1C(c1ccccc1Cl)=NC21CC1)C[C@H](C(=O)NC1(c2ccccc2)CC1)C3` [Example 46], it took 2 nM to reach half-maximal inhibition (IC50).

Take `Cc1nnc2n1-c1sc3c(c1C(c1ccccc1Cl)=NC21CC1)C[C@H](C(=O)N[C@H]1CCCOC1)C3` [Example 29]: it took 8.4 nM to reach half-maximal inhibition (IC50).

In turn, `Cc1nnc2n1-c1sc3c(c1C(c1ccccc1Cl)=NC21CC1)C[C@H](C(=O)N[C@@H]1COCC(F)(F)C1)C3` [Example 110] displayed an IC50 of 4.3 nM. This IC50 is about 2-fold lower than that of the compound before.

In turn, `Cc1nnc2n1-c1sc3c(c1C(c1ccccc1Cl)=NC21CC1)C[C@H](C(=O)N[C@@H]1c2ccccc2C[C@@H]1O)C3` [Example 50] registered an IC50 of 2.4 nM. Against the preceding compound, the IC50 is about 1.8-fold lower.

`Cc1nnc2n1-c1sc3c(c1C(c1ccccc1Cl)=NC21CC1)C[C@H](C(=O)NC1(C(F)(F)F)CC1)C3` [Example 16] returned an IC50 of 4.1 nM.

Consider `CCn1ncc2c1CC[C@@H](NC(=O)[C@@H]1Cc3sc4c(c3C1)C(c1ccccc1Cl)=NC1(CC1)c1nnc(C)n1-4)C2` [Example 99], for which the half-inhibitory concentration (IC50) turned out to be 8.1 nM.

For `Cc1nnc2n1-c1sc3c(c1C(c1ccccc1Cl)=NC21CC1)C[C@H](C(=O)NC1CCc2ccc(F)cc21)C3` (stereo partly drawn) [Example 22], the IC50 amounted to 0.6 nM. This IC50 is about 14-fold lower than that of the compound before.

Compound `Cc1nnc2n1-c1sc3c(c1C(c1ccccc1Cl)=NC21CC1)C[C@H](C(=O)N[C@H]1C[C@@H]1c1ccccc1)C3` [Example 17] displayed a half-inhibitory concentration (IC50) of 1.2 nM.

As to `Cc1nnc2n1-c1sc3c(c1C(c1ccccc1Cl)=NC21CC1)C[C@H](C(=O)N1CCC(F)(F)CC1)C3` [Example 129, (13′S)-9′-(2-chlorophenyl)-13′-(4,4-difluoropiperidine-1-carbonyl)-3′-methyl-16′-thia-2′,4′,5′,8′-tetraazaspiro[cyclopropane-1,7′-tetracyclo[8.6.0.0^2,6.0^11,15]hexadecane]-1′(10′),3′,5′,8′,11′(15′)-pentaene], the half-inhibitory concentration (IC50) worked out at 2.5 nM. Compared with the last compound, the IC50 is about 2.1-fold higher.

Consider `Cc1nnc2n1-c1sc3c(c1C(c1ccccc1Cl)=NC21CC1)C[C@H](C(=O)NC1CCn2nccc2C1)C3` (stereo partly drawn) [Example 77], for which the IC50 turned out to be 10 nM.

`CCC12CC(NC(=O)[C@@H]3Cc4sc5c(c4C3)C(c3ccccc3Cl)=NC3(CC3)c3nnc(C)n3-5)(C1)C2` [Example 109] gave an IC50 of 1.1 nM.

Compound `Cc1nnc2n1-c1sc3c(c1C(c1ccccc1Cl)=NC21CC1)C[C@H](C(=O)NC1(C(C)(C)O)CC1)C3` [Example 122, (13′S)-9′-(2-chlorophenyl)-N-[1-(2-hydroxy-propan-2-yl)cyclopropyl]-3′-methyl-16′-thia-2′,4′,5′,8′-tetraazaspiro[cyclopropane-1,7′-tetracyclo[8.6.0.0^2,6.0^11,15]hexadecane]-1′(10′),3′,5′,8′,11′(15′)-pentaene-13′-carboxamide] returned an IC50 of 37 nM. Against the preceding compound, the IC50 is about 34-fold higher.

`Cc1nnc2n1-c1sc3c(c1C(c1ccccc1Cl)=NC21CC1)C[C@H](C(=O)N[C@H]1CC[C@H](C(C)(C)O)CC1)C3` [Example 98] displayed an IC50 of 9.1 nM.

`CC[C@@H]1C[C@H]2O[C@@H]1C[C@H]2NC(=O)[C@@H]1Cc2sc3c(c2C1)C(c1ccccc1Cl)=NC1(CC1)c1nnc(C)n1-3` [Example 101] had a half-maximal inhibitory concentration (IC50) of 6 nM.

`CCN(C(=O)[C@@H]1Cc2sc3c(c2C1)C(c1ccccc1Cl)=NC1(CC1)c1nnc(C)n1-3)[C@H]1CC[C@H](O)CC1` [Example 20]: the IC50 amounted to 11 nM.

`Cc1nnc2n1-c1sc3c(c1C(c1ccccc1Cl)=NC21CC1)C[C@H](C(=O)N(C)[C@@H]1CCCC[C@@H]1O)C3` [Example 41] returned a half-maximal inhibitory concentration (IC50) of 3.9 nM.

As for `Cc1nnc2n1-c1sc3c(c1C(c1ccccc1Cl)=NC21CC1)C[C@H](C(=O)NC12CC(C1)C2)C3` [Example 1, (13′S)—N-{bicyclo[1.1.1]pentan-1-yl}-9′-(2-chlorophenyl)-3′-methyl-16′-thia-2′,4′,5′,8′-tetraazaspiro[cyclopropane-1,7′-tetracyclo[8.6.0.0^2,6.0^11,15]hexadecane]-1′(10′),3′,5′,8′,11′(15′)-pentaene-13′-carboxamide], the 50% inhibitory concentration (IC50) turned out to be 1.3 nM.

Consider `Cc1cc2n(n1)CC(NC(=O)[C@@H]1Cc3sc4c(c3C1)C(c1ccccc1Cl)=NC1(CC1)c1nnc(C)n1-4)CC2` (stereo partly drawn) [Example 23], for which the midpoint of inhibition, the IC50, lay at 9.9 nM.

For `Cc1nnc2n1-c1sc3c(c1C(c1ccccc1Cl)=NC21CC1)C[C@H](C(=O)N(C)C1CCOCC1)C3` [Example 37], 6.6 nM corresponded to half-maximal inhibition (IC50).

Regarding `Cc1nnc2n1-c1sc3c(c1C(c1ccccc1Cl)=NC21CC1)C[C@H](C(=O)NC1CCc2cc(F)ccc21)C3` (stereo partly drawn) [Example 61], the IC50 is 0.6 nM.

`Cc1nnc2n1-c1sc3c(c1C(c1ccccc1Cl)=NC21CC1)C[C@H](C(=O)N[C@H]1CC[C@H](C(F)(F)F)CC1)C3` [Example 15] yielded a half-inhibitory concentration (IC50) of 1 nM.

On to `Cc1nnc2n1-c1sc3c(c1C(c1ccccc1Cl)=NC21CC1)C[C@H](C(=O)N(C)[C@H]1CC[C@H](O)CC1)C3` [Example 112], for which the half-inhibitory concentration (IC50) was found to be 22 nM.

Regarding `Cc1nnc2n1-c1sc3c(c1C(c1ccccc1Cl)=NC21CC1)C[C@H](C(=O)NC1CCC(C)(C)OC1)C3` (stereo partly drawn) [Example 94], the half-inhibitory concentration (IC50) turned out to be 6.4 nM.

For `Cc1nnc2n1-c1sc3c(c1C(c1ccccc1Cl)=NC21CC1)C[C@H](C(=O)N[C@H]1COCC(F)(F)C1)C3` [Example 116], the IC50 turned out to be 3.9 nM.

For `Cc1nnc2n1-c1sc3c(c1C(c1ccccc1Cl)=NC21CC1)C[C@H](C(=O)NC1CCC1)C3` [Example 7, (13′S)-9′-(2-chlorophenyl)-N-cyclobutyl-3′-methyl-16′-thia-2′,4′,5′,8′-tetraazaspiro-[cyclopropane-1,7′-tetracyclo[8.6.0.0^2,6.0^11,15]-hexadecane]-1′(10′),3′,5′,8′,11′(15′)-pentaene-13′-carboxamide], the concentration for half-maximal inhibition (IC50) stood at 1.7 nM.

Compound `Cc1nnc2n1-c1sc3c(c1C(c1ccccc1Cl)=NC21CC1)C[C@H](C(=O)N[C@H]1CCc2cccc(F)c21)C3` [Example 53] gave a half-inhibitory concentration (IC50) of 0.5 nM.

On to `Cc1nnc2n1-c1sc3c(c1C(c1ccccc1Cl)=NC21CC1)C[C@H](C(=O)N(C)C1CCCCC1)C3` [Example 44], for which inhibition was half-maximal at 1.3 nM (IC50). This IC50 lies about 2.6-fold higher than the previous one.

In turn, `Cc1nnc2n1-c1sc3c(c1C(c1ccccc1Cl)=NC21CC1)C[C@H](C(=O)N[C@H]1CC[C@@H](F)C1)C3` [Example 70] yielded an IC50 of 2.6 nM. This IC50 is about 2-fold higher than that of the compound before.

For the compound `Cc1nnc2n1-c1sc3c(c1C(c1cc(C#N)ccc1Cl)=NC21CC1)C[C@H](C(=O)N1CCOCC1)C3` [Example 2, 4-chloro-3-[(13′S)-3′-methyl-13′-(morpholine-4-carbonyl)-16′-thia-2′,4′,5′,8′-tetraazaspiro[cyclopropane-1,7′-tetracyclo[8.6.0.0^2,6.0^11,15]hexadecane]-1′(10′),3′,5′,8′,11′(15′)-pentaen-9′-yl]benzonitrile], the IC50 is 83 nM.

With `Cc1nnc2n1-c1sc3c(c1C(c1ccccc1Cl)=NC21CC1)C[C@H](C(=O)NC1CC1)C3` [Example 74], the midpoint of inhibition, the IC50, lay at 5.5 nM.

The experiment is the same for the next values; noted with them: S-bepafant and its methylated derivatives in the above-mentioned assay.
`Cc1nnc2n1-c1sc3c(c1C(c1ccccc1Cl)=N[C@@H]2C)C[C@H](C(=O)N1CCOCC1)C3` [comparative example 1b, reference compound]: the half-inhibitory concentration (IC50) was > 1000 nM.

With `Cc1nnc2n1-c1sc3c(c1C(c1ccccc1Cl)=N[C@H]2C)C[C@H](C(=O)N1CCOCC1)C3` [comparative example 1a, reference compound], inhibition was half-maximal at 6.9 nM (IC50).

The experiment is the same for the next values; noted with them: dedicated head-to-head comparison assay run: cyclopropylene vs di-methyl / cyclobutylene analogues.
Regarding `Cc1noc(C)c1NC(=O)[C@@H]1Cc2sc3c(c2C1)C(c1ccccc1Cl)=NC1(CC1)c1nnc(C)n1-3` [Example 128], half-maximal inhibition (IC50) was put at 5.5 nM.

As to `Cc1nnc2n1-c1sc3c(c1C(c1ccccc1Cl)=NC21CC1)C[C@H](C(=O)N1CCC(F)(F)CC1)C3` [Example 129, (13′S)-9′-(2-chlorophenyl)-13′-(4,4-difluoropiperidine-1-carbonyl)-3′-methyl-16′-thia-2′,4′,5′,8′-tetraazaspiro[cyclopropane-1,7′-tetracyclo[8.6.0.0^2,6.0^11,15]hexadecane]-1′(10′),3′,5′,8′,11′(15′)-pentaene], the IC50 amounted to 2.6 nM.

The compound `Cc1nnc2n1-c1sc3c(c1C(c1ccccc1Cl)=NC2(C)C)C[C@H](C(=O)NC1CCOCC1)C3` [reference compound] yielded an IC50 of 65 nM.

The compound `Cc1nnc2n1-c1sc3c(c1C(c1ccccc1Cl)=NC2(C)C)C[C@H](C(=O)NC1CCC1)C3` [reference compound] displayed an IC50 of 7.6 nM.

Turning to `Cc1nnc2n1-c1sc3c(c1C(c1ccccc1Cl)=NC21CC1)C[C@H](C(=O)NC1CCc2cc(F)ccc21)C3` (stereo partly drawn) [Example 61], half-maximal inhibition (IC50) required 1.1 nM.

In turn, `Cc1nnc2n1-c1sc3c(c1C(c1ccccc1Cl)=NC21CC1)C[C@H](C(=O)N(C)[C@H]1CC[C@H](O)CC1)C3` [Example 112] came in with a half-maximal inhibitory concentration (IC50) of 11.9 nM. Compared with the last compound, the IC50 is about 11-fold higher.

In turn, `Cc1noc(C)c1NC(=O)[C@@H]1Cc2sc3c(c2C1)C(c1ccccc1Cl)=NC(C)(C)c1nnc(C)n1-3` [reference compound] showed a half-inhibitory concentration (IC50) of 39 nM.

`Cc1nnc2n1-c1sc3c(c1C(c1ccccc1Cl)=NC21CC1)C[C@H](C(=O)NC1CCC1)C3` [Example 7, (13′S)-9′-(2-chlorophenyl)-N-cyclobutyl-3′-methyl-16′-thia-2′,4′,5′,8′-tetraazaspiro-[cyclopropane-1,7′-tetracyclo[8.6.0.0^2,6.0^11,15]-hexadecane]-1′(10′),3′,5′,8′,11′(15′)-pentaene-13′-carboxamide] returned a half-inhibitory concentration (IC50) of 2 nM. This IC50 is about 20-fold lower than that of the compound before.

The compound `Cc1nnc2n1-c1sc3c(c1C(c1ccccc1Cl)=NC2(C)C)C[C@H](C(=O)N[C@@H]1CCC(F)(F)C1)C3` [reference compound] came in with an IC50 of 7.7 nM.
